Source: PubChem BioAssay (NCI)
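Cells were grown in 96-well plates and exposed to each compound for 48 hours at five concentrations; endpoints were interpolated linearly between bracketing concentrations, or set to the highest concentration if not reached. TGI marks complete inhibition of growth.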

Columns and labels:
Test in all cases: NCI anticancer screen, dose series, 48 h
SW-620 colon = system: SW-620 colon
HCT-116 colon = system: HCT-116 colon
EKVX NSCLC = system: EKVX NSCLC
SK-MEL-5 melanoma = system: SK-MEL-5 melanoma
HT29 colon = system: HT29 colon
SF-268 CNS = system: SF-268 CNS
ACHN renal = system: ACHN renal
COLO 205 colon = system: COLO 205 colon
OVCAR-5 ovarian = system: OVCAR-5 ovarian
MOLT-4 leukemia = system: MOLT-4 leukemia
HOP-62 NSCLC = system: HOP-62 NSCLC
MDA-N = system: MDA-N
SF-295 CNS = system: SF-295 CNS
M14 melanoma = system: M14 melanoma
SK-MEL-28 melanoma = system: SK-MEL-28 melanoma
786-0 renal = system: 786-0 renal
NCI/ADR-RES ovarian = system: NCI/ADR-RES ovarian
K-562 leukemia = system: K-562 leukemia
MCF7 breast = system: MCF7 breast
NCI-H522 lung = system: NCI-H522 lung
SR leukemia = system: SR leukemia
PC-3 prostate = system: PC-3 prostate
HOP-92 NSCLC = system: HOP-92 NSCLC
HS 578T breast = system: HS 578T breast
NCI-H460 lung = system: NCI-H460 lung
OVCAR-8 ovarian = system: OVCAR-8 ovarian
T-47D breast = system: T-47D breast
HCT-15 colon = system: HCT-15 colon
KM12 colon = system: KM12 colon
SNB-75 CNS = system: SNB-75 CNS
OVCAR-4 ovarian = system: OVCAR-4 ovarian
MALME-3M melanoma = system: MALME-3M melanoma
U251 CNS = system: U251 CNS
RPMI-8226 leukemia = system: RPMI-8226 leukemia
A549 NSCLC = system: A549 NSCLC
OVCAR-3 ovarian = system: OVCAR-3 ovarian
CCRF-CEM leukemia = system: CCRF-CEM leukemia
MDA-MB-435 = system: MDA-MB-435
SN12C renal = system: SN12C renal
UACC-62 melanoma = system: UACC-62 melanoma
HL-60(TB) leukemia = system: HL-60(TB) leukemia
IGROV1 ovarian = system: IGROV1 ovarian
SNB-19 CNS = system: SNB-19 CNS
TK-10 renal = system: TK-10 renal
BT-549 breast = system: BT-549 breast
RXF 393 renal = system: RXF 393 renal
DU-145 prostate = system: DU-145 prostate
HCC-2998 colon = system: HCC-2998 colon
SF-539 CNS = system: SF-539 CNS
MDA-MB-231 breast = system: MDA-MB-231 breast
NCI-H23 lung = system: NCI-H23 lung
NCI-H226 lung = system: NCI-H226 lung
CAKI-1 renal = system: CAKI-1 renal
SK-OV-3 ovarian = system: SK-OV-3 ovarian
LOX IMVI melanoma = system: LOX IMVI melanoma
SK-MEL-2 melanoma = system: SK-MEL-2 melanoma
UO-31 renal = system: UO-31 renal
UACC-257 melanoma = system: UACC-257 melanoma

O=C(NC1=C(Cl)C(=O)c2ccccc2C1=O)c1ccccc1
TGI (SW-620 colon): 33.4 µM
TGI (HCT-116 colon): 32.2 µM
TGI (EKVX NSCLC): > 100 µM
TGI (SK-MEL-5 melanoma): 78.9 µM
TGI (HT29 colon): 66.1 µM
TGI (SF-268 CNS): > 100 µM
TGI (ACHN renal): 40 µM
TGI (COLO 205 colon): 30 µM
TGI (OVCAR-5 ovarian): > 100 µM
TGI (MOLT-4 leukemia): 58.8 µM
TGI (HOP-62 NSCLC): > 100 µM
TGI (MDA-N): 28.1 µM
TGI (SF-295 CNS): > 100 µM
TGI (M14 melanoma): > 100 µM
TGI (SK-MEL-28 melanoma): > 100 µM
TGI (786-0 renal): > 100 µM
TGI (NCI/ADR-RES ovarian): 39.1 µM
TGI (K-562 leukemia): 54.3 µM
TGI (MCF7 breast): 39.2 µM
TGI (NCI-H522 lung): 52.3 µM
TGI (SR leukemia): > 100 µM
TGI (PC-3 prostate): > 100 µM
TGI (HOP-92 NSCLC): 39.9 µM
TGI (HS 578T breast): > 100 µM
TGI (NCI-H460 lung): > 100 µM
TGI (OVCAR-8 ovarian): > 100 µM
TGI (T-47D breast): 47.4 µM
TGI (HCT-15 colon): 62.6 µM
TGI (KM12 colon): > 100 µM
TGI (SNB-75 CNS): > 100 µM
TGI (OVCAR-4 ovarian): > 100 µM
TGI (MALME-3M melanoma): 31.3 µM
TGI (U251 CNS): 81.1 µM
TGI (RPMI-8226 leukemia): > 100 µM
TGI (A549 NSCLC): > 100 µM
TGI (OVCAR-3 ovarian): 42.7 µM
TGI (CCRF-CEM leukemia): > 100 µM
TGI (MDA-MB-435): 47.6 µM
TGI (SN12C renal): > 100 µM
TGI (UACC-62 melanoma): 90.7 µM
TGI (HL-60(TB) leukemia): > 100 µM
TGI (IGROV1 ovarian): > 100 µM
TGI (SNB-19 CNS): > 100 µM
TGI (TK-10 renal): 52.5 µM
TGI (BT-549 breast): 44.4 µM
TGI (RXF 393 renal): 34 µM
TGI (DU-145 prostate): > 100 µM
TGI (HCC-2998 colon): > 100 µM
TGI (SF-539 CNS): > 100 µM
TGI (MDA-MB-231 breast): > 100 µM
TGI (NCI-H23 lung): 71.7 µM
TGI (NCI-H226 lung): 69 µM

COc1ccc(Cn2c3c(cc(OC(C)=O)c2=O)Cc2ccccc2-3)cc1
TGI (SW-620 colon): 22.4 µM
TGI (HCT-116 colon): 13.2 µM
TGI (EKVX NSCLC): 28.3 µM
TGI (SK-MEL-5 melanoma): 41.6 µM
TGI (HT29 colon): 25.2 µM
TGI (SF-268 CNS): 33.8 µM
TGI (ACHN renal): 32 µM
TGI (COLO 205 colon): > 50 µM
TGI (OVCAR-5 ovarian): > 50 µM
TGI (CAKI-1 renal): 35.7 µM
TGI (MOLT-4 leukemia): 28.8 µM
TGI (HOP-62 NSCLC): > 50 µM
TGI (MDA-N): > 50 µM
TGI (SF-295 CNS): > 50 µM
TGI (M14 melanoma): 17.9 µM
TGI (SK-MEL-28 melanoma): > 50 µM
TGI (786-0 renal): 12.8 µM
TGI (NCI/ADR-RES ovarian): 8.53 µM
TGI (K-562 leukemia): 34 µM
TGI (MCF7 breast): > 50 µM
TGI (NCI-H522 lung): 15.1 µM
TGI (SR leukemia): 28 µM
TGI (SK-OV-3 ovarian): > 50 µM
TGI (PC-3 prostate): 30.2 µM
TGI (HOP-92 NSCLC): 34.1 µM
TGI (HS 578T breast): > 50 µM
TGI (NCI-H460 lung): 15 µM
TGI (OVCAR-8 ovarian): 20.3 µM
TGI (T-47D breast): > 50 µM
TGI (HCT-15 colon): 39 µM
TGI (KM12 colon): 35.9 µM
TGI (SNB-75 CNS): 43.6 µM
TGI (OVCAR-4 ovarian): > 50 µM
TGI (MALME-3M melanoma): 32.2 µM
TGI (U251 CNS): 26.3 µM
TGI (A549 NSCLC): > 50 µM
TGI (LOX IMVI melanoma): 19.7 µM
TGI (OVCAR-3 ovarian): > 50 µM
TGI (CCRF-CEM leukemia): > 50 µM
TGI (MDA-MB-435): > 50 µM
TGI (SK-MEL-2 melanoma): 23.9 µM
TGI (SN12C renal): 20.8 µM
TGI (UACC-62 melanoma): 22.3 µM
TGI (UO-31 renal): 15.9 µM
TGI (HL-60(TB) leukemia): 20.6 µM
TGI (IGROV1 ovarian): 20.3 µM
TGI (UACC-257 melanoma): 9.87 µM
TGI (SNB-19 CNS): > 50 µM
TGI (TK-10 renal): 34 µM
TGI (BT-549 breast): 35.1 µM
TGI (RXF 393 renal): 42.6 µM
TGI (DU-145 prostate): > 50 µM
TGI (HCC-2998 colon): 9.96 µM
TGI (SF-539 CNS): 28.4 µM
TGI (MDA-MB-231 breast): > 50 µM
TGI (NCI-H23 lung): 28.5 µM
TGI (NCI-H226 lung): 41.1 µM
